Measured values published in patent publication US12692254B2, “Benzimidazole inhibitors of PAD enzymes” (BRISTOL-MYERS SQUIBB COMPANY, priority 2018, dated 2026).

The molecules below were run against human PAD4 (hPAD4) (Homo sapiens, UniProt Q9UM07) (assay: RFMS human PAD4 functional assay (rapid-fire mass spectrum)). Conditions: 5 nM hPAD4 enzyme, 250 μM BAEE, 50 μM Calcium; 30 min preincubation, 90 min reaction at 37° C.
Format: biochemical
Procedure, shortened: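 PAD4 (10 nM) preincubated 30 min with compound (top final 50 μM), then BAEE substrate added in pH 7.5 HEPES buffer with DTT, 50 μM calcium, TPEN; 90 min at 37° C. After TCA quench, citrulline derivatized with phenyl glyoxal (4 mM final, 30 min, 37° C) and quantified by RapidFire MS against internal standard.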

Chain of human PAD4 (hPAD4) (Q9UM07 whole entry): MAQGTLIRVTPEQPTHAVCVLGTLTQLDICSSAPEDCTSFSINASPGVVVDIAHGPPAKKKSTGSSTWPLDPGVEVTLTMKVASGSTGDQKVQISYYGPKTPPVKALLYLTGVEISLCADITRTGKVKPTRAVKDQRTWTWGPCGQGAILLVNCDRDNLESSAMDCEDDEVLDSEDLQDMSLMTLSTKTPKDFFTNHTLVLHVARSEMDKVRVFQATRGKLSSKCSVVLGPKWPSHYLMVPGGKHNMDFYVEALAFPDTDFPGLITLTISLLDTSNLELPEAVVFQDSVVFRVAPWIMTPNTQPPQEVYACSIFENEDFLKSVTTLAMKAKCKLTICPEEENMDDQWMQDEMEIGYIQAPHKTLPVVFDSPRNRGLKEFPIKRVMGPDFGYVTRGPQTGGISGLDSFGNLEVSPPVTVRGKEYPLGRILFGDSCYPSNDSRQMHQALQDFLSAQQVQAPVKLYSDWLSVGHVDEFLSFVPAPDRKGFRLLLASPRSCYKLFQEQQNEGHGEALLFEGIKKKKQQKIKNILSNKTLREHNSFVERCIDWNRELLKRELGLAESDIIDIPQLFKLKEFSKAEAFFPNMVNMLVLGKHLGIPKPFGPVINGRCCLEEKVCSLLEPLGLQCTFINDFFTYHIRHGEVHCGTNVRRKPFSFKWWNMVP

Structure (SMILES)	IC50
COc1cc(C(=O)N2CC3CCC2[C@@H]3N)cc2nc(-c3cc4ccccc4n3CC3CC3)n(CC3CN(C(=O)c4ncccn4)C3)c12 (stereo partly drawn) [Example 446, (7R)-2-{2-[1-(cyclopropylmethyl)-1H-indol-2-yl]-7-methoxy-1-{[1-(pyrimidine-2-carbonyl)azetidin-3-yl]methyl}-1H-1,3-benzodiazole-5-carbonyl}-2-azabicyclo[2.2.1]heptan-7-amine]	43 nM
COc1cc(C(=O)N2CC3CCC2[C@@H]3N)cc2nc(-c3cc4cccnc4n3CC3CC3)n(CC3CN(C(=O)c4ccc(F)cc4)C3)c12 (stereo partly drawn) [Example 447, (7R)-2-{2-[1-(cyclopropylmethyl)-1H-pyrrolo[2,3-b]pyridin-2-yl]-1-{[1-(4-fluorobenzoyl)azetidin-3-yl]methyl}-7-methoxy-1H-1,3-benzodiazole-5-carbonyl}-2-azabicyclo[2.2.1]heptan-7-amine]	43 nM
COc1cc(C(=O)N2CC3CCC2[C@@H]3N)cc2nc(-c3cc4ccccc4n3CC3CC3)n(CC3CN(C(=O)c4cncs4)C3)c12 (stereo partly drawn) [Example 448, (7R)-2-{2-[1-(cyclopropylmethyl)-1H-indol-2-yl]-7-methoxy-1-{[1-(1,3-thiazole-5-carbonyl)azetidin-3-yl]methyl}-1H-1,3-benzodiazole-5-carbonyl}-2-azabicyclo[2.2.1]heptan-7-amine]	44 nM
Cc1cc(C(=O)N2CC3CCC2[C@@H]3N)cc2nc(-c3cc4ccccc4n3CC3CC3)n(CC3CN(C(=O)c4ccc(C#N)cc4)C3)c12 (stereo partly drawn) [Example 449, 4-[3-({5-[(7R)-7-amino-2-azabicyclo[2.2.1]heptane-2-carbonyl]-2-[1-(cyclopropylmethyl)-1H-indol-2-yl]-7-methyl-1H-1,3-benzodiazol-1-yl}methyl)azetidine-1-carbonyl]benzonitrile]	44 nM
Cc1cc(C(=O)N2CC3CCC2[C@@H]3N)cc2nc(-c3cc4ccccc4n3CC3CC3)n(CC3CN(C(=O)c4ccccc4)C3)c12 (stereo partly drawn) [Example 450, (7R)-2-{1-[(1-benzoylazetidin-3-yl)methyl]-2-[1-(cyclopropylmethyl)-1H-indol-2-yl]-7-methyl-1H-1,3-benzodiazole-5-carbonyl}-2-azabicyclo[2.2.1]heptan-7-amine]	46 nM
COc1cc(C(=O)N2CC3CCC2[C@@H]3N)cc2nc(-c3cc4ccccc4n3CC3CC3)n(CC3CN(C(=O)c4ccnc(C#N)c4)C3)c12 (stereo partly drawn) [Example 451, 4-[3-({5-[(7R)-7-amino-2-azabicyclo[2.2.1]heptane-2-carbonyl]-2-[1-(cyclopropylmethyl)-1H-indol-2-yl]-7-methoxy-1H-1,3-benzodiazol-1-yl}methyl)azetidine-1-carbonyl]pyridine-2-carbonitrile]	47 nM
COc1cc(C(=O)N2C[C@H](N)C[C@@H](F)C2)cc2nc(-c3cc4cccnc4n3CC3CC3)n(CC3CN(C(=O)c4ccccc4)C3)c12 [Example 452, (3R,5R)-1-{[(1-benzoylazetidin-3-yl)methyl]-2-[1-(cyclopropylmethyl)-1H-pyrrolo[2,3-b]pyridin-2-yl]-7-methoxy-1H-1,3-benzodiazole-5-carbonyl}-5-fluoropiperidin-3-amine]	48 nM
COc1cc(C(=O)N2CC3CCC2[C@@H]3N)cc2nc(-c3cc4ccccc4n3CC3CC3)n(CC3CN(C(=O)c4cscn4)C3)c12 (stereo partly drawn) [Example 453, (7R)-2-{2-[1-(cyclopropylmethyl)-1H-indol-2-yl]-7-methoxy-1-{[1-(1,3-thiazole-4-carbonyl)azetidin-3-yl]methyl}-1H-1,3-benzodiazole-5-carbonyl}-2-azabicyclo[2.2.1]heptan-7-amine]	53 nM
COc1cc(C(=O)N2CC3CCC2[C@@H]3N)cc2nc(-c3cc4cccnc4n3CC3CC3)n(CC3CN(C(=O)c4ccc(C#N)cc4F)C3)c12 (stereo partly drawn) [Example 454, 4-[3-({5-[(7R)-7-amino-2-azabicyclo[2.2.1]heptane-2-carbonyl]-2-(1-(cyclopropylmethyl)-1H-pyrrolo[2,3-b]pyridin-2-yl]-7-methoxy-1H-1,3-benzodiazol-1-yl}methyl)azetidine-1-carbonyl]-3-fluorobenzointrile]	53 nM
COc1cc(C(=O)N2CC3CCC2[C@@H]3N)cc2nc(-c3cc4cccnc4n3CC3CC3)n(CC3CN(C(=O)Nc4ccccc4)C3)c12 (stereo partly drawn) [Example 455, 3-({5-[(7R)-7-amino-2-azabicyclo[2.2.1]heptane-2-carbonyl]-2-[1-(cyclopropylmethyl)-1H-pyrrolo[2,3-b]pyridin-2-yl]-7-methoxy-1H-1,3-benzodiazol-1-yl}methyl)-N-phenylazetidine-1-carboxamide]	59 nM
COc1cc(C(=O)N2CC3CCC2[C@@H]3N)cc2nc(-c3cc4cccnc4n3CC3CC3)n(CC3CN(C(=O)c4cccc(Cl)c4)C3)c12 (stereo partly drawn) [Example 456, (7R)-2-(1-{[1-(3-chlorobenzoyl)azetidin-3-yl]methyl}-2-[1-(cyclopropylmethyl)-1H-pyrrolo[2,3-b]pyridin-2-yl]-7-methoxy-1H-1,3-benzodiazole-5-carbonyl)-2-azabicyclo[2.2.1]heptan-7-amine]	59 nM
COc1cc(C(=O)N2CC3CCC2[C@@H]3N)cc2nc(-c3cc4ccccc4n3CC3CC3)n(CC3CN(C(=O)c4cccs4)C3)c12 (stereo partly drawn) [Example 457, (7R)-2-{2-[1-(cyclopropylmethyl)-1H-indol-2-yl]-7-methoxy-1-{[1-(thiophene-2-carbonyl)azetidin-3-yl]methyl}-1H-1,3-benzodiazole-5-carbonyl}-2-azabicyclo[2.2.1]heptan-7-amine]	63 nM
Cc1cc(C(=O)N2CC3CCC2[C@@H]3N)cc2nc(-c3cc4cccnc4n3CC3CC3)n(CC3CN(C(=O)c4ccccc4)C3)c12 (stereo partly drawn) [Example 458, (7R)-2-{1-[(1-benozylazetidin-3-yl)methyl]-2-[1-(cyclopropylmethyl)-1H-pyrrolo[2,3-b]pyridin-2-yl]-7-methyl-1H-1,3-benzodiazole-5-carbonyl}-2-azabicyclo[2.2.1]heptan-7-amine]	65 nM
COc1cc(C(=O)N2CC3CCC2[C@@H]3N)cc2nc(-c3cc4cccnc4n3CC3CC3)n(CC3CN(C(=O)c4ccc(C#N)c(F)c4)C3)c12 (stereo partly drawn) [Example 459, 4-[3-({5-[(7R)-7-amino-2-azabicyclo[2.2.1]heptane-2-carbonyl]-2-[1-(cyclopropylmethyl)-1H-pyrrolo[2,3-b]pyridin-2-yl]-7-methoxy-1H-1,3-benzodiazol-1-yl}methyl)azetidine-1-carbonyl]-2-fluorobenzonitrile]	66 nM
COc1cc(C(=O)N2C[C@H](N)C[C@@H](F)C2)cc2nc(-c3cc4ccccc4n3CC3CC3)n(CC3(C)CN(C(=O)c4ccccc4)C3)c12 [Example 460, (3R,5R)-1-{1-[(1-benzoyl-3-methylazetidin-3-yl)methyl]-2-[1-(cyclopropylmethyl)-1H-indol-2-yl]-7-methoxy-1H-1,3-benzodiazole-5-carbonyl}-5-fluoropiperidin-3-amine]	67 nM
COc1cc(C(=O)N2CC3CCC2[C@@H]3N)cc2nc(-c3cc4ccccc4n3CC3CC3)n(CC3CN(C(=O)c4cc[n+]([O-])cc4)C3)c12 (stereo partly drawn) [Example 461, 4-[3-({5-[(7R)-7-amino-2-azabicyclo[2.2.1]heptane-2-carobnyl]-2-[1-(cyclopropylmethyl)-1H-indol-2-yl]-7-methoxy-1H-1,3-benzodiazol-1-yl}methyl)azetidine-1-carbonyl]pyridin-1-ium-1-olate]	68 nM
N#Cc1ccc(C(=O)N2CC(Cn3c(-c4cc5cccnc5n4CC4CC4)nc4cc(C(=O)N5CC6CCC5[C@@H]6N)cc(F)c43)C2)cc1 (stereo partly shown) [Example 462]	70 nM
COc1cc(C(=O)N2CC3CCC2[C@@H]3N)cc2nc(-c3cc4ccccc4n3CC3CC3)n(CC3CN(C(=O)c4cnc(C#N)nc4)C3)c12 (stereo partly drawn) [Example 463, 5-[3-({5-[(7R)-7-amino-2-azabicyclo[2.2.1]heptane-2-carbonyl]-2-[1-(cyclopropylmethyl)-1H-indol-2-yl]-7-methoxy-1H-1,3-benzodiazol-1-yl}methyl)azetidine-1-carbonyl]pyrimidine-2-carbonitrile]	73 nM
COc1cc(C(=O)N2CC3CCC2[C@@H]3N)cc2nc(-c3cc4cccnc4n3CC3CC3)n(CC3CN(C(=O)c4cccc(F)c4)C3)c12 (stereo partly drawn) [Example 464, (7R)-2-{2-[1-(cyclopropylmethyl)-1H-pyrrolo[2,3-b]pyridin-2-yl]-1-{[1-(3-fluorobenzoyl)azetidin-3-yl]methyl}-7-methoxy-1H-1,3-benzodiazole-5-carbonyl}-2-azabicyclo[2.2.1]heptan-7-amine]	76 nM
N[C@@H]1C2CCC1N(C(=O)c1ccc3c(c1)nc(-c1cc4cccnc4n1CC1CC1)n3CC1CN(C(=O)c3ccccc3)C1)C2 (stereo partly drawn) [Example 465, (7R)-2-{1-[(1-benozylazetidin-3-yl)methyl]-2-[1-(cyclopropylmethyl)-1H-pyrrolo[2,3-b]pyridin-2-yl]-1H-1,3-benzodiazole-5-carbonyl}-2-azabicyclo[2.2.1]heptan-7-amine]	83 nM
N[C@@H]1C2CCC1N(C(=O)c1cc(F)c3c(c1)nc(-c1cc4cccnc4n1CC1CC1)n3CC1CN(C(=O)c3ccncc3)C1)C2 (stereo partly drawn) [Example 466, (7R)-2-{2-[1-(cyclopropylmethyl)-1H-pyrrolo[2,3-b]pyridin-2-yl]-7-fluoro-1-{[1-(pyridine-4-carbonyl)azetidin-3-yl]methyl}-1H-1,3-benzodiazole-5-carbonyl}-2-azabicyclo[2.2.1]heptan-7-amine]	84 nM
N#Cc1ccc(C(=O)N2CC(Cn3c(-c4cc5cccnc5n4CC4CC4)nc4cc(C(=O)N5CC6CCC5[C@@H]6N)ccc43)C2)cc1 (stereo partly drawn) [Example 467, 4-[3-({5-[(7R)-7-amino-2-azabicyclo[2.2.1]heptane-2-carbonyl]-2-[1-(cyclopropylmethyl)-1H-pyrrolo[2,3-b]pyridin-2-yl]-1H-1,3-benzodiazol-1-yl}methyl)azetidine-1-carbonyl]benzonitrile]	91 nM
